Source: ChEMBL document CHEMBL1909046, “DrugMatrix in vitro pharmacology data”

Key:
[1] = biological target: T1, C-X-C chemokine receptor type 1 (Homo sapiens, UniProt P25024); further: in other assays of this panel Not Active means under 50% inhibition at 10 µM
T1 sequence (P25024 whole entry): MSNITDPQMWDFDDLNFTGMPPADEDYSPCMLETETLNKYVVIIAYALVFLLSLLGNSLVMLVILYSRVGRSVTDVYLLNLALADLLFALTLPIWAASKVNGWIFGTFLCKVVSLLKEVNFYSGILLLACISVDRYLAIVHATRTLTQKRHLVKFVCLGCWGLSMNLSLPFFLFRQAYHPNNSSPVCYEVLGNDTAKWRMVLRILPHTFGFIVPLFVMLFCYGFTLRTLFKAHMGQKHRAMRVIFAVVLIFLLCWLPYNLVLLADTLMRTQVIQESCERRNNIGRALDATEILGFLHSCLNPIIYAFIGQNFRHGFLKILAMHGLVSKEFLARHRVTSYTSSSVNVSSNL

[2] = biological target: T2, C-X-C chemokine receptor type 2 (Homo sapiens, UniProt P25025); format: cell membranes, Membrane; details: cho-k1; further: in other assays of this panel Not Active means under 50% inhibition at 10 µM
T2 sequence (P25025 whole entry): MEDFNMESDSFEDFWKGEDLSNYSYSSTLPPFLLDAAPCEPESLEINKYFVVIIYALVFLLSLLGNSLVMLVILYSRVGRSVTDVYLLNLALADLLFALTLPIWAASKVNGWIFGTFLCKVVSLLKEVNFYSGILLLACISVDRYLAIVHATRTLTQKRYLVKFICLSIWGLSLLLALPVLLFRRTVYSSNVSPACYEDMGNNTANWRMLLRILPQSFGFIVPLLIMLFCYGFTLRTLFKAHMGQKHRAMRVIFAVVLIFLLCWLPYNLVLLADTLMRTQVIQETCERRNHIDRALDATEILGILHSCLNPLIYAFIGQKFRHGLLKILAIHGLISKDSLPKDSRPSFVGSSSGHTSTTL

[3] = biological target: Prostaglandin G/H synthase 1 (Homo sapiens, UniProt P23219); assay: biochemical; format: tissue-based, Platelet; details: platelet;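 further: inhibition of COX-1 enzyme activity, with arachidonic acid supplied as substrate; in other assays of this panel Not Active means under 50% inhibition at 10 µM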
[4] = biological target: D(1A) dopamine receptor (Homo sapiens, UniProt P21728); assay: DRUGMATRIX: Dopamine D1 radioligand binding (ligand: [3H] SCH-23390); format: cell membranes, CHO, Membrane; details: cho; Not Active = under 50% inhibition at 10 µM
[5] = DRUGMATRIX: Imidazoline I2, Central radioligand binding (ligand: [3H] Idazoxan); format: cell membranes, Rattus norvegicus, Wistar, Cerebral cortex, Membrane; details: Not Active = under 50% inhibition at 10 µM
[6] = biological target: T3, Leukotriene C4 synthase (Cavia porcellus, UniProt A6XA80); format: tissue-based, Lung;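 further: enzyme inhibition assay of leukotriene C4 synthase, using LTA4 as the substrate; in other assays of this panel Not Active means under 50% inhibition at 10 µM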
T3 sequence (A6XA80 whole entry): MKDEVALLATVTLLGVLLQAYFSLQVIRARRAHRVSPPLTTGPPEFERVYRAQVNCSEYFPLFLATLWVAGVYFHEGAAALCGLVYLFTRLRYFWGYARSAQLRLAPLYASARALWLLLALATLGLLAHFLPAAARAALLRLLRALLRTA

[7] = biological target: T4, Interstitial collagenase (Homo sapiens, UniProt P03956); format: tissue-based, Rheumatoid synovial fibroblasts
T4 sequence (P03956 whole entry): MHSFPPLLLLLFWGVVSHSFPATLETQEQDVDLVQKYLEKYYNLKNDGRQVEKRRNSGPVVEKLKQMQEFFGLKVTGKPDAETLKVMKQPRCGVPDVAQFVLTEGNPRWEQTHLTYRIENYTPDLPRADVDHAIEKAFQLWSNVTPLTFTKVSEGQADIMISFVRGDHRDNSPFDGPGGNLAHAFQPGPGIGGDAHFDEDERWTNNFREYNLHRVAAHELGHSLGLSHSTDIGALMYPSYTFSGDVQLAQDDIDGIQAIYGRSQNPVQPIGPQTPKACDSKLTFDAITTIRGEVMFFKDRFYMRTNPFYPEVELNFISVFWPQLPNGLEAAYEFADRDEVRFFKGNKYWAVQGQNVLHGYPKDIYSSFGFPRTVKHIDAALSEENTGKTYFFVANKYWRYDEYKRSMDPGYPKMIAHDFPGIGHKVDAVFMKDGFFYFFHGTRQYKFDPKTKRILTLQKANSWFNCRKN

D(1A) dopamine receptor, sequence (P21728 whole entry): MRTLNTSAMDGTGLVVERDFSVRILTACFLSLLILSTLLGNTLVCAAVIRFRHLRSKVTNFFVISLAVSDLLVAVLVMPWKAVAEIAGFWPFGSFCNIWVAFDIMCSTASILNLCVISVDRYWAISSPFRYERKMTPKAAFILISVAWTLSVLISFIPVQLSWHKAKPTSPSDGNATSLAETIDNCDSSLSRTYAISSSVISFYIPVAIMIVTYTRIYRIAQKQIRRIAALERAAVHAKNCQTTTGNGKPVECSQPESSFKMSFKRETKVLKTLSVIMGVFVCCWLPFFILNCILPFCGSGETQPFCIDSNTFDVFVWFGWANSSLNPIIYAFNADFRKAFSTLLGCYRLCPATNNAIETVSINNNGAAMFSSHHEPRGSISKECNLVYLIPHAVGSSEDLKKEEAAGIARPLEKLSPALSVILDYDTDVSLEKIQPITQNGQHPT
Prostaglandin G/H synthase 1, sequence (P23219 whole entry): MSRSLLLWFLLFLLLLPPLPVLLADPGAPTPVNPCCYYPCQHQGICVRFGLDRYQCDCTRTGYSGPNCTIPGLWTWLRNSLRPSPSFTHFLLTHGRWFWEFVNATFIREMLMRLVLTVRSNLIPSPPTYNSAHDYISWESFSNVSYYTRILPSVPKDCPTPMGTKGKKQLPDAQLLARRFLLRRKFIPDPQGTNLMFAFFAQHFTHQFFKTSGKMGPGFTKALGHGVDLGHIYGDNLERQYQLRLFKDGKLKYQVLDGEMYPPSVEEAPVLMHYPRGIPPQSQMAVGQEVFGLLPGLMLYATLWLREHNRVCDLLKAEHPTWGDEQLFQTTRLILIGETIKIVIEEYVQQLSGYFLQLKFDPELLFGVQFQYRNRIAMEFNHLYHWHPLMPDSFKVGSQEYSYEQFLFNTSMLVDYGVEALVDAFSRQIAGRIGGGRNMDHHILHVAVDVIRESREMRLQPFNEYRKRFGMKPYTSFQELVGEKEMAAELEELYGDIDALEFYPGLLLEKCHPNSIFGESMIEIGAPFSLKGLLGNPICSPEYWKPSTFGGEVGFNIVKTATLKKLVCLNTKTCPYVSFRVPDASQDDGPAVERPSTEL

Nn1nnc2ccccc21
Not Active: IC50 [1] | IC50 [2] | IC50 [3] | IC50 [4] | IC50 [5] | Ki [5] | IC50 [6] | IC50 [7]

CC[C@]1(O)CC[C@H]2[C@@H]3CCC4=CCCC[C@@H]4[C@H]3CC[C@@]21C
Not Active: IC50 [1] | IC50 [2] | IC50 [3] | IC50 [4] | IC50 [5] | Ki [5] | IC50 [6] | IC50 [7]

N[C@@H](Cc1ccc(F)cc1)C(=O)O
Not Active: IC50 [1] | IC50 [2] | IC50 [3] | IC50 [4] | IC50 [5] | Ki [5] | IC50 [6] | IC50 [7]

CCOC(=O)[C@H](CCc1ccccc1)N[C@@H](C)C(=O)N1Cc2ccccc2C[C@H]1C(=O)O
Not Active: IC50 [1] | IC50 [2] | IC50 [3] | IC50 [4] | IC50 [5] | Ki [5] | IC50 [6] | IC50 [7]

O=C(c1ccccc1Cl)N1CCC(Cc2ccccc2)CC1
Not Active: IC50 [1] | IC50 [2] | IC50 [3] | IC50 [4] | IC50 [5] | Ki [5] | IC50 [6] | IC50 [7]

CCOC(=O)[C@H](CCc1ccccc1)N[C@@H](C)C(=O)N1CCC[C@H]1C(=O)O
Not Active: IC50 [1] | IC50 [2] | IC50 [3] | IC50 [4] | IC50 [5] | Ki [5] | IC50 [6] | IC50 [7]

Clc1cc2c(cc1Cl)Oc1cc(Cl)c(Cl)cc1O2 [2,3,7,8-TETRACHLORODIBENZO-P-DIOXIN]
Not Active: IC50 [1] | IC50 [2] | IC50 [3] | IC50 [4] | IC50 [5] | Ki [5] | IC50 [6] | IC50 [7]

CC(C)(C)c1ccc(S(=O)(=O)/C=C/C#N)cc1 [BAY-11-7085]
Not Active: IC50 [1] | IC50 [2] | IC50 [3] | IC50 [5] | Ki [5] | IC50 [6] | IC50 [7]

C#C[C@]1(O)CC[C@H]2[C@@H]3CCC4=Cc5oncc5C[C@]4(C)[C@H]3CC[C@@]21C [DANAZOL]
Not Active: IC50 [1] | IC50 [2] | IC50 [3] | IC50 [5] | Ki [5] | IC50 [6] | IC50 [7]

C[C@H](C(=O)O)c1cccc(C(=O)c2ccccc2)c1 [DEXKETOPROFEN]
Not Active: IC50 [1] | IC50 [2] | IC50 [4] | IC50 [5] | Ki [5] | IC50 [6] | IC50 [7]

CC(C(=O)O)c1ccc(-c2ccccc2)c(F)c1 (centres undefined) [FLURBIPROFEN]
Not Active: IC50 [1] | IC50 [2] | IC50 [4] | IC50 [5] | Ki [5] | IC50 [6] | IC50 [7]
